Some test systems named below: COLO 205 colon; HCT-116 colon; HCT-15 colon; IGROV1 ovarian; K-562 leukemia; OVCAR-4 ovarian; U251 CNS; UO-31 renal; DU-145 prostate; NCI/ADR-RES ovarian.
Common to all, as to experiment: NCI anticancer screen, dose series, 48 h

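These data come from cells grown in 96-well plates and exposed to compound for 48 hours at five concentrations. TGI denotes the concentration required for complete inhibition of growth.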

Take `CCN(/N=C1\CC2C=CCN(C2)C(=O)Cc2c1[nH]c1ccccc21)S(=O)(=O)c1ccc(C)cc1` (centres undefined): the TGI in the assay with COLO 205 colon, in the assay with HCT-116 colon, in the assay on HCT-15 colon, in the assay on IGROV1 ovarian, in the assay with K-562 leukemia and in the assay on OVCAR-4 ovarian was > 100 µM throughout. In addition, the TGI with U251 CNS and in the assay with UO-31 renal was > 100 µM throughout.
`O=C1CN(c2ccccc2)C(=O)CN1NCNN1CC(=O)N(c2ccccc2)CC1=O`: the TGI in the assay with COLO 205 colon, in the assay on DU-145 prostate, in the assay on HCT-116 colon, with HCT-15 colon, in the assay on IGROV1 ovarian and in the assay on OVCAR-4 ovarian was > 100 µM throughout. The TGI in the assay on U251 CNS and in the assay with UO-31 renal was > 100 µM in each case.
In the case of `C/C(CCN(C)C)=N\OC(=O)c1ccccc1`, the TGI in the assay on COLO 205 colon, in the assay on HCT-116 colon, with IGROV1 ovarian, with K-562 leukemia, with OVCAR-4 ovarian and in the assay on U251 CNS was > 100 µM throughout. In addition, the TGI with UO-31 renal was > 100 µM.
As to `[O-][N+]1=C2CCC/C(=N/O)C2(O)C2CCCCC21N1CCOCC1` (centres undefined), the TGI in the assay on COLO 205 colon, with HCT-116 colon, with HCT-15 colon, in the assay with IGROV1 ovarian, in the assay on K-562 leukemia and with NCI/ADR-RES ovarian was > 100 µM throughout. In addition, the TGI in the assay with OVCAR-4 ovarian, in the assay with U251 CNS and in the assay with UO-31 renal was > 100 µM each time.
For the molecule `NC(CSCSCC(N)C(=O)O)C(=O)O` (centres undefined), the TGI with COLO 205 colon was > 225 µM; with HCT-116 colon it was > 225 µM; with HCT-15 colon, > 225 µM; with IGROV1 ovarian, > 225 µM; in the assay with K-562 leukemia, > 225 µM; in the assay on NCI/ADR-RES ovarian, > 104 µM. Further, the TGI in the assay with OVCAR-4 ovarian, in the assay with U251 CNS and in the assay on UO-31 renal was > 225 µM in each case.
On to `O[C@@]12Cc3c([nH]c4ccccc34)[C@@H]3Oc4c(-c5ccccc5)ccc5c4[C@@]31CCN(CC1CC1)[C@@H]2C5`, for which the TGI with COLO 205 colon is 3.28 µM; in the assay on HCT-116 colon, 3.1 µM; with HCT-15 colon, 4.06 µM; in the assay on IGROV1 ovarian it was 15 µM; in the assay on K-562 leukemia it was 7.56 µM; with NCI/ADR-RES ovarian, 6.58 µM. The TGI was found to be 7.03 µM with OVCAR-4 ovarian, 3.09 µM with U251 CNS and 3.11 µM in the assay on UO-31 renal.
Take `O=C1OC(c2ccccc2Br)=N/C1=C/c1ccccc1`: the TGI in the assay on DU-145 prostate, in the assay with HCT-116 colon, in the assay on HCT-15 colon, in the assay on IGROV1 ovarian, in the assay on K-562 leukemia and in the assay on OVCAR-4 ovarian was > 100 µM throughout. Moreover, the TGI with U251 CNS is 69.7 µM; with UO-31 renal it was > 100 µM.
Regarding `CC(C)C(CCOS(=O)(=O)O)CCC(C)[C@H]1[C@@H](O)C(O)C2[C@]3(O)C[C@@H](O)C4(O)C[C@@H](O)CC[C@]4(C)C3CC[C@@]21C` (some centres undefined), the TGI in the assay on COLO 205 colon, in the assay with HCT-116 colon, in the assay with HCT-15 colon, with IGROV1 ovarian, in the assay on K-562 leukemia and with OVCAR-4 ovarian was > 100 µM each time. Further, the TGI in the assay on U251 CNS and in the assay with UO-31 renal was > 100 µM throughout.
Turning to `COc1cccc(/C=N/[N-]C(N)=O)c1[O-].[Co+2].[OH3+].c1ccncc1`, the TGI with COLO 205 colon, in the assay on HCT-116 colon, with HCT-15 colon, in the assay on IGROV1 ovarian, with OVCAR-4 ovarian and in the assay with U251 CNS was > 100 µM in each case. The TGI in the assay on UO-31 renal is > 100 µM.
Consider `OC(Cc1cc(CC(O)(C(F)(F)F)C(F)(F)F)nc(CC(O)(C(F)(F)F)C(F)(F)F)c1)(C(F)(F)F)C(F)(F)F`, for which the TGI with COLO 205 colon is 2.14 µM; in the assay with DU-145 prostate, 7.09 µM; in the assay with HCT-116 colon, 2.76 µM; in the assay on HCT-15 colon, 3.95 µM; with IGROV1 ovarian, 5.58 µM; in the assay with K-562 leukemia, > 10 µM. Moreover, the TGI in the assay with NCI/ADR-RES ovarian is 6.32 µM; in the assay with OVCAR-4 ovarian it was > 10 µM; in the assay on U251 CNS it was 5.32 µM.
On to `CC1CC(=O)Nc2ccccc2N1C(=O)C1CC1` (centres undefined), for which the TGI in the assay on COLO 205 colon, with DU-145 prostate, with HCT-116 colon, in the assay on HCT-15 colon, in the assay with IGROV1 ovarian and with K-562 leukemia was > 100 µM each time. Besides, the TGI with OVCAR-4 ovarian, in the assay with U251 CNS and in the assay on UO-31 renal was > 100 µM each time.
As for `N#C/C(=C\c1ccc[nH]1)C(=O)c1ccccc1`, the TGI in the assay on COLO 205 colon, in the assay with HCT-116 colon, in the assay with HCT-15 colon, in the assay on K-562 leukemia, in the assay with OVCAR-4 ovarian and in the assay on U251 CNS was > 100 µM each time. Moreover, the TGI in the assay on UO-31 renal is > 100 µM.
For `COC(=O)c1c2c(cc3c1CC1(C3)Cc3cc4c(c(C(=O)OC)c3C1)CCC4)CCC2`, the TGI with COLO 205 colon, in the assay with HCT-116 colon, in the assay on IGROV1 ovarian, in the assay on K-562 leukemia, with NCI/ADR-RES ovarian and in the assay with OVCAR-4 ovarian was > 100 µM in each case. Also, the TGI in the assay with U251 CNS was > 100 µM; in the assay on UO-31 renal, 28.4 µM.
Regarding `O=C1c2ccccc2C(=O)N1NC1=NCCN1`, the TGI in the assay on COLO 205 colon, with DU-145 prostate, in the assay on HCT-116 colon, in the assay with HCT-15 colon, in the assay on IGROV1 ovarian and with K-562 leukemia was > 100 µM each time. For the same molecule, the TGI with NCI/ADR-RES ovarian, in the assay with OVCAR-4 ovarian and with U251 CNS was > 100 µM throughout.
For the molecule `C[C@]12CCc3nn(-c4ccccc4)nc3C1CC[C@@H]1C2CC[C@]2(C)C(=O)CCC12` (some centres undefined), the TGI in the assay with COLO 205 colon, in the assay on HCT-116 colon, in the assay with HCT-15 colon, in the assay with IGROV1 ovarian, in the assay on K-562 leukemia and in the assay on OVCAR-4 ovarian was > 100 µM each time. Also, the TGI in the assay on U251 CNS and in the assay with UO-31 renal was > 100 µM in each case.
For the molecule `COc1ccc(-c2cc(=O)c3cc(O)ccc3o2)c(OC)c1OC`, the TGI in the assay with COLO 205 colon was > 100 µM; in the assay on HCT-116 colon, 61.8 µM; in the assay on HCT-15 colon it was > 100 µM; in the assay on IGROV1 ovarian, > 100 µM; with K-562 leukemia it was > 100 µM; in the assay on OVCAR-4 ovarian, > 100 µM.
